Experiments:
Format in all cases: biochemical
Human Tyk2 kinase domain = target: T1, Human Tyk2 kinase domain (Homo sapiens, UniProt P29597); experiment: Tyk2 Inhibition Assay (Omnia kinase fluorescence peptide substrate); details: averaged IC50 ranges; 10 μM (Km app) or 1 mM ATP, 2 nM Tyk2
T1 construct: comprising amino acids 886 to 1187; His10 (10 histidine residues) (C, cleaved yes); made in house
T1 sequence (P29597 886-1187): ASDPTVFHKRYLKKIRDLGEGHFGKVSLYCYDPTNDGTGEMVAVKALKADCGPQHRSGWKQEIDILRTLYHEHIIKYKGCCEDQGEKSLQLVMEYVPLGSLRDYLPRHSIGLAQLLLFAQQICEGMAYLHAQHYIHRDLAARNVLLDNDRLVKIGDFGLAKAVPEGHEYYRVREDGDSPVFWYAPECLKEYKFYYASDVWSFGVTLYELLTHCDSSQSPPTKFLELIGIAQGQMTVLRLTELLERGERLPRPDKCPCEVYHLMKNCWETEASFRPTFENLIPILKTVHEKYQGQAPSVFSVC
Procedure, shortened: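 Phosphorylation of 8 μM Omnia Y12 peptide followed kinetically by Sox fluorescence, ex 360/em 485 nm, every 50 s for 45 min. Enzyme: 2 nM Tyk2 kinase domain (aa 886–1187, His tag removed); ATP at 10 μM (Km app) or 1 mM; buffer HEPES pH 7.4 with MgCl2, Triton X-100, DTT. 10-point curves up to 10 μM, IC50 from 4-parameter logistic fit.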

JAK1 = target: T2, JAK1 (Homo sapiens, UniProt P23458); experiment: JAK1 Inhibition Assay (Omnia kinase fluorescence peptide substrate); details: averaged IC50 ranges; 40 μM (Km app) or 1 mM ATP, 15 nM JAK1
T2 construct: purchased Invitrogen Corporation, Carlsbad, Calif; IVGN PV4775
T2 sequence (P23458 whole entry): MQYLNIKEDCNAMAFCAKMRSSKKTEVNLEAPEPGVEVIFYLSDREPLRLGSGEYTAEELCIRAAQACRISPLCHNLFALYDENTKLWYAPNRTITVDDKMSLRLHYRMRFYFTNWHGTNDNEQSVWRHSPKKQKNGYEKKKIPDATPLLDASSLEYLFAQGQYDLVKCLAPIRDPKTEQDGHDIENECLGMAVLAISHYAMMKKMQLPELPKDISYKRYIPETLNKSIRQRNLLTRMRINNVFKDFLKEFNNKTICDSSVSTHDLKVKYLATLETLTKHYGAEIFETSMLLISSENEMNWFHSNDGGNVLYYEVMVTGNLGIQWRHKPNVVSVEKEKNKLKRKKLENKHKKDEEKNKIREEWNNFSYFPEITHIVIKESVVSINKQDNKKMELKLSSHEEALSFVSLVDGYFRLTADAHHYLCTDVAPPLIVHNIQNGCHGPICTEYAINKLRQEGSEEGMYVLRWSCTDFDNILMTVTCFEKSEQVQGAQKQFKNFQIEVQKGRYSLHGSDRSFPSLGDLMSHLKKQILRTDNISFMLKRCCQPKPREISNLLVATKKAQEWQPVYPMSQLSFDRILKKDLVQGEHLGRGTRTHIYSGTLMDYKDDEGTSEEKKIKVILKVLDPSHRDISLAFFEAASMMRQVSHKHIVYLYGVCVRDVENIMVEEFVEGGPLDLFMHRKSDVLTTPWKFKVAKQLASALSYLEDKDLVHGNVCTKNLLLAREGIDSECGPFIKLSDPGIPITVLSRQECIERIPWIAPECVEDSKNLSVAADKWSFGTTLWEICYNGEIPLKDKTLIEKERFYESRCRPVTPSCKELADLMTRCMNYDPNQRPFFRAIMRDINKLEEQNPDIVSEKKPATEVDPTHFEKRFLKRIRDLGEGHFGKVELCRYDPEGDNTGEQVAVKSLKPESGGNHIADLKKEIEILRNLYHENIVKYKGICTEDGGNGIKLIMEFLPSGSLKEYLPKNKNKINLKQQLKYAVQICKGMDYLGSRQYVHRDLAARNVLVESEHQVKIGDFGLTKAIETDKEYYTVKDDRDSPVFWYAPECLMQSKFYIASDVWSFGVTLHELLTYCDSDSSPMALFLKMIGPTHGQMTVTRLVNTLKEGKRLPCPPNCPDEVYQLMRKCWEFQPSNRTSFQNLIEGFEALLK
Procedure, shortened: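 15 nM JAK1, 8 μM Omnia Y12 peptide, 40 μM (Km app) or 1 mM ATP; 25 mM HEPES pH 7.4, 10 mM MgCl2, 2% DMSO. Fluorescence (ex 360/em 485 nm) read every 50 s over 45 min. IC50 by 4-parameter fit of percent of control, top dose 10 μM.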

JAK3 = target: T3, JAK3 (Homo sapiens, UniProt P52333); experiment: JAK3 Inhibition Assay (Omnia kinase fluorescence peptide substrate); details: averaged IC50 ranges; 10 μM (Km app) or 1 mM ATP, 2.5 nM JAK3
T3 construct: purchased Invitrogen Corporation, Carlsbad, Calif; IVGN PV4080
T3 sequence (P52333 1-1124): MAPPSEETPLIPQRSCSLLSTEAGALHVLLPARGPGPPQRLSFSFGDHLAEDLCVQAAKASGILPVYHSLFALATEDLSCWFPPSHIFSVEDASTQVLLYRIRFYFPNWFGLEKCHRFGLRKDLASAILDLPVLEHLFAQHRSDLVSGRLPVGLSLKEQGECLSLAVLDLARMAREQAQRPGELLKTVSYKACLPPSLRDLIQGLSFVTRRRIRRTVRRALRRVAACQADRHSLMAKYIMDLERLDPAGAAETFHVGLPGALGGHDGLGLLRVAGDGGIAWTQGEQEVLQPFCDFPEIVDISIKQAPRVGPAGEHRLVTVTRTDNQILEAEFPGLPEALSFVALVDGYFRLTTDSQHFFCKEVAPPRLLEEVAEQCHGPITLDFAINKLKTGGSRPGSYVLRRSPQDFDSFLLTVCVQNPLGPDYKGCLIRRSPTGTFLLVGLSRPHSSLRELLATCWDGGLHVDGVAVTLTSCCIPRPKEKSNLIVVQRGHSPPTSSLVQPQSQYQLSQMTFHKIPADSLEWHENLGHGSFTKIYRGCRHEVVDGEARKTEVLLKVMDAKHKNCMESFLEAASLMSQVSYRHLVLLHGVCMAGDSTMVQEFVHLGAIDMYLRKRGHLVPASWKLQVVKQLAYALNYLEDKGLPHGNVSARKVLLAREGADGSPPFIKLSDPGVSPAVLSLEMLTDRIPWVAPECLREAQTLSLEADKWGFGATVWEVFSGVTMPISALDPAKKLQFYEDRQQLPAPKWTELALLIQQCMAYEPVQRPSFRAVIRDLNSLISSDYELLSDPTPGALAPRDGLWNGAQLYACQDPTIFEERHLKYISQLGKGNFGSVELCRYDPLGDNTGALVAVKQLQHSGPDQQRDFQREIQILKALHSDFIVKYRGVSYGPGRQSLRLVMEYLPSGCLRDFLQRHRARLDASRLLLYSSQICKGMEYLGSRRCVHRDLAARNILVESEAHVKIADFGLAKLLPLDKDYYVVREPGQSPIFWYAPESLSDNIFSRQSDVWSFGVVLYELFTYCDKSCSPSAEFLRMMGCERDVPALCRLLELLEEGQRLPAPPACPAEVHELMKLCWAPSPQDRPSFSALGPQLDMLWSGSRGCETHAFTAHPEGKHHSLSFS
Procedure, shortened: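 IC50 is the concentration giving 50 percent of control on a 4-parameter logistic fit of 10-point, 3-fold dilutions from a 10 μM top dose, at 2% final DMSO. Kinetic Sox fluorescence (360/485 nm) was monitored every 50 s for 45 min. Mix: JAK3 2.5 nM, Omnia Y7 peptide 10 μM, ATP 10 μM (Km app) or 1 mM, in HEPES pH 7.4 buffer with MgCl2, Triton X-100 and DTT.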

JAK2 = target: T4, JAK2 (Homo sapiens, UniProt O60674); experiment: JAK2 Inhibition Assay (Omnia kinase fluorescence peptide substrate); details: averaged IC50 ranges; 25 μM (Km app) or 1 mM ATP, 5 nM JAK2
T4 construct: purchased Invitrogen Corporation, Carlsbad, Calif; IVGN PV4288
T4 sequence (O60674 whole entry): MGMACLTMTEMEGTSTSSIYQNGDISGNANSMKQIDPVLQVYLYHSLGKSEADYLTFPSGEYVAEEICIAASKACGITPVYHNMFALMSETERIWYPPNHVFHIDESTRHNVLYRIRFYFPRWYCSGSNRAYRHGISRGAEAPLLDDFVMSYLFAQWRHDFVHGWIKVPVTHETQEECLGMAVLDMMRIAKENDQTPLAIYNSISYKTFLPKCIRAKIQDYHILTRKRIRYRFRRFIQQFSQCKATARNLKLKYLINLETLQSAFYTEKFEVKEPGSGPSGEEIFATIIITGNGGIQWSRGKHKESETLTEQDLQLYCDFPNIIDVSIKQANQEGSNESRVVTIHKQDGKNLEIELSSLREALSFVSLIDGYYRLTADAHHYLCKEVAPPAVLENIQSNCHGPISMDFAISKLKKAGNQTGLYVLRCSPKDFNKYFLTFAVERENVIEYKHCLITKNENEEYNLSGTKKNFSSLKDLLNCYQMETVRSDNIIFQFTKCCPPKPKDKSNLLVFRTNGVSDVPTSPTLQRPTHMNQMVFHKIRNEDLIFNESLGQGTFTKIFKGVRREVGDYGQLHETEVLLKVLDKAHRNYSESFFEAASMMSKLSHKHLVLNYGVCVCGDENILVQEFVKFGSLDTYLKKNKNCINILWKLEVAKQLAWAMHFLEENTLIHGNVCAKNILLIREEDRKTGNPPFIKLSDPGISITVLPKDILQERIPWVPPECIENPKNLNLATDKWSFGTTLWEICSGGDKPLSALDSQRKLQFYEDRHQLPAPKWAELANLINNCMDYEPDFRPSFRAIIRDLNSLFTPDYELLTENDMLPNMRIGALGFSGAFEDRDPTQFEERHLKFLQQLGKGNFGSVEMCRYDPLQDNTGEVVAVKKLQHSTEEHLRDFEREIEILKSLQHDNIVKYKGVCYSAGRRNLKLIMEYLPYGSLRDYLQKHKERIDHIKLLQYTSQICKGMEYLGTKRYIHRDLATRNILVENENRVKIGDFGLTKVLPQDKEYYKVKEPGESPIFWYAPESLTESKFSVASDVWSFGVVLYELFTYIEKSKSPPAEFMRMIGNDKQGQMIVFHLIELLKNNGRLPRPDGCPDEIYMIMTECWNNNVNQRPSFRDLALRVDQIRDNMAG

Structure (SMILES) | IC50 (Human Tyk2 kinase domain) [nM] | IC50 (JAK1) [nM] | IC50 (JAK3) [nM] | IC50 (JAK2) [nM]
CSCCC(C1CC1)n1cc(-c2nc(-c3cnn(C)c3)cc3nccn23)cn1 (centres unmarked) [Example 62, 5-(1-(1-cyclopropyl-3-(methylthio)propyl)-1H-pyrazol-4-yl)-7-(1-methyl-1H-pyrazol-4-yl)imidazo[1,2-c]pyrimidine] | 10 to 100 | 100 to 1000 | 100 to 1000 | 10 to 100
Cn1cc(-c2cc3nccn3c(-c3cnn(C(CC(N)=O)C4CC4)c3)n2)cn1 (centres unmarked) [Example 63, 3-cyclopropyl-3-(4-(7-(1-methyl-1H-pyrazol-4-yl)imidazo[1,2-c]pyrimidin-5-yl)-1H-pyrazol-1-yl)propanamide] | 100 to 1000 | > 1000 | > 1000 | 100 to 1000
CCOCCC(C1CCC1)n1cc(-c2nc(-c3cnn(C)c3)cc3nccn23)cn1 (centres unmarked) [Example 67, 5-(1-(1-cyclobutyl-3-ethoxypropyl)-1H-pyrazol-4-yl)-7-(1-methyl-1H-pyrazol-4-yl)imidazo[1,2-c]pyrimidine] | 100 to 1000 | > 1000 | > 1000 | 100 to 1000
Cn1cc(-c2cc3nccn3c(-c3cnn(C(CCO)C4CCC4)c3)n2)cn1 (centres unmarked) [Example 68, 3-cyclobutyl-3-(4-(7-(1-methyl-1H-pyrazol-4-yl)imidazo[1,2-c]pyrimidin-5-yl)-1H-pyrazol-1-yl)propan-1-ol] | 100 to 1000 | > 1000 | > 1000 | > 1000
COCCC(C1CCCC1)n1cc(-c2nc(-c3cnn(C)c3)cc3nccn23)cn1 (centres unmarked) [Example 70, 5-(1-(1-cyclopentyl-3-methoxypropyl)-1H-pyrazol-4-yl)-7-(1-methyl-1H-pyrazol-4-yl)imidazo[1,2-c]pyrimidine] | 100 to 1000 | > 1000 | > 1000 | > 1000
COCCC(C1CCCCC1)n1cc(-c2nc(-c3cnn(C)c3)cc3nccn23)cn1 (centres unmarked) [Example 71, 5-(1-(1-cyclohexyl-3-methoxypropyl)-1H-pyrazol-4-yl)-7-(1-methyl-1H-pyrazol-4-yl)imidazo[1,2-c]pyrimidine] | > 1000 | > 1000 | > 1000 | > 1000
Cn1cc(-c2cc3nccn3c(-c3cnn(C(CCO)C4CCCC4)c3)n2)cn1 (centres unmarked) [Example 72, 3-cyclopentyl-3-(4-(7-(1-methyl-1H-pyrazol-4-yl)imidazo[1,2-c]pyrimidin-5-yl)-1H-pyrazol-1-yl)propan-1-ol] | 100 to 1000 | > 1000 | > 1000 | > 1000
Cn1cc(-c2cc3nccn3c(-c3cnn(C(CCO)C4CCCCC4)c3)n2)cn1 (centres unmarked) [Example 73, 3-cyclohexyl-3-(4-(7-(1-methyl-1H-pyrazol-4-yl)imidazo[1,2-c]pyrimidin-5-yl)-1H-pyrazol-1-yl)propan-1-ol] | 100 to 1000 | > 1000 | > 1000 | 100 to 1000

Further lines, results first:

IC50 (Human Tyk2 kinase domain) [nM] | IC50 (JAK1) [nM] | IC50 (JAK3) [nM] | IC50 (JAK2) [nM] | Structure (SMILES)
< 10 | 100 to 1000 | 100 to 1000 | 10 to 100 | Cc1cc(-c2cc3nccn3c(-c3cnn(C4(CCF)CN(S(=O)(=O)C(F)(F)F)C4)c3)n2)[nH]n1 [Example 58, 5-(1-(3-(2-fluoroethyl)-1-((trifluoromethyl)sulfonyl)azetidin-3-yl)-1H-pyrazol-4-yl)-7-(3-methyl-1H-pyrazol-5-yl)imidazo[1,2-c]pyrimidine]
< 10 | 100 to 1000 | 100 to 1000 | 10 to 100 | CO[C@H](C)Cn1cc(-c2cc3nccn3c(-c3cnn(C4(CCF)CN(S(=O)(=O)C(F)(F)F)C4)c3)n2)cn1 [Example 59, (R)-5-(1-(3-(2-fluoroethyl)-1-((trifluoromethyl)sulfonyl)azetidin-3-yl)-1H-pyrazol-4-yl)-7-(1-(2-methoxypropyl)-1H-pyrazol-4-yl)imidazo[1,2-c]pyrimidine]
< 10 | 10 to 100 | 100 to 1000 | < 10 | O=S(=O)(N1CC(CCF)(n2cc(-c3nc(-c4cnn(C5CCOCC5)c4)cc4nccn34)cn2)C1)C(F)(F)F [Example 60, 5-(1-(3-(2-fluoroethyl)-1-((trifluoromethyl)sulfonyl)azetidin-3-yl)-1H-pyrazol-4-yl)-7-(1-(tetrahydro-2H-pyran-4-yl)-1H-pyrazol-4-yl)imidazo[1,2-c]pyrimidine]
100 to 1000 | > 1000 | > 1000 | 100 to 1000 | CC(=O)CC(C1CC1)n1cc(-c2nc(-c3cnn(C)c3)cc3nccn23)cn1 (centres unmarked) [Example 61, 4-cyclopropyl-4-(4-(7-(1-methyl-1H-pyrazol-4-yl)imidazo[1,2-c]pyrimidin-5-yl)-1H-pyrazol-1-yl)butan-2-one]
10 to 100 | 100 to 1000 | 100 to 1000 | 10 to 100 | Cn1cc(-c2cc3nccn3c(-c3cnn(C4(CCF)CN(S(C)(=O)=O)C4)c3)n2)cn1 [Example 64, 5-(1-(3-(2-fluoroethyl)-1-(methylsulfonyl)azetidin-3-yl)-1H-pyrazol-4-yl)-7-(1-methyl-1H-pyrazol-4-yl)imidazo[1,2-c]pyrimidine]
10 to 100 | 100 to 1000 | 100 to 1000 | 100 to 1000 | CCC(CCCO)n1cc(-c2nc(-c3cnn(C)c3)cc3nccn23)cn1 (centres unmarked) [Example 65, 4-(4-(7-(1-methyl-1H-pyrazol-4-yl)imidazo[1,2-c]pyrimidin-5-yl)-1H-pyrazol-1-yl)hexan-1-ol]
< 10 | 100 to 1000 | 100 to 1000 | 10 to 100 | Cn1cc(-c2cc3nccn3c(-c3cnn(C(CCF)C4CCCC4)c3)n2)cn1 (centres unmarked) [Example 66, 5-(1-(1-cyclopentyl-3-fluoropropyl)-1H-pyrazol-4-yl)-7-(1-methyl-1H-pyrazol-4-yl)imidazo[1,2-c]pyrimidine]
< 10 | 100 to 1000 | 100 to 1000 | 10 to 100 | Cn1cc(-c2cc3nccn3c(-c3cnn(C(CCF)C4CCC4)c3)n2)cn1 (centres unmarked) [Example 69, 5-(1-(1-cyclobutyl-3-fluoropropyl)-1H-pyrazol-4-yl)-7-(1-methyl-1H-pyrazol-4-yl)imidazo[1,2-c]pyrimidine]
10 to 100 | > 1000 | > 1000 | 100 to 1000 | COCCC(C1CC1)n1cc(-c2nc(-c3cnn(C)c3)cc3nccn23)cn1 (centres unmarked) [Example 74, 5-(1-(1-cyclopropyl-3-methoxypropyl)-1H-pyrazol-4-yl)-7-(1-methyl-1H-pyrazol-4-yl)imidazo[1,2-c]pyrimidine]
